Laboratory results reported in patent US9605004B2, “Chemical compounds” (SYNGENTA LIMITED, priority 2013, dated 2017).

Tests used:
[1] = system: a variety of test species; assay: Pre-emergence herbicidal activity (Example 8a, Table 2); type: in vivo; set-up: key: 0 = no damage to plant, 5 = total damage to plant; conditions: application pre-emergence, rate 1000 g/ha, evaluated after 13 days
Summary of the method: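 Compounds are applied pre-emergence as an aqueous spray, formulated in 50:50 acetone/water containing 0.5% Tween 20, to pots sown one day earlier. Plants grow in a controlled glasshouse and are scored 13 days later for damage from 0 to 5.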

[2] = system: a variety of test species; assay: Post-emergence herbicidal activity (Example 8b, Table 3); type: in vivo; conditions: application post-emergence, rate 1000 g/ha, evaluated after 13 days, scale 0-5; for Herbicidal damage score, ABUTH: Abutilon theophrasti; for Herbicidal damage score, ALOMY: Alopecurus myosuroides; for Herbicidal damage score, AMARE: Amaranthus retroflexus; for Herbicidal damage score, ECHCG: Echinochloa crus-galli; for Herbicidal damage score, SETFA: Setaria faberi; for Herbicidal damage score, ZEAMX: Zea mays
Summary of the method: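 Pot-grown seedlings sprayed 8 days after sowing with active ingredient in acetone/water (50:50) plus 0.5% Tween 20. Glasshouse at 24/16 °C day/night, 14 h light, 65% humidity, watered twice daily. Damage scored after 13 days on a 0–5 scale (5 = total damage, 0 = none).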

SMILES | Pre-emergence herbicidal activity, damage score ABUTH [1] | Pre-emergence herbicidal activity, damage score ALOMY [1] | Pre-emergence herbicidal activity, damage score AMARE [1] | Pre-emergence herbicidal activity, damage score ECHCG [1] | Pre-emergence herbicidal activity, damage score SETFA [1] | Pre-emergence herbicidal activity, damage score ZEAMX [1] | Herbicidal damage score, ABUTH [2] | Herbicidal damage score, ALOMY [2] | Herbicidal damage score, AMARE [2] | Herbicidal damage score, ECHCG [2] | Herbicidal damage score, SETFA [2] | Herbicidal damage score, ZEAMX [2]
CCC(C)c1cc(N2C(=O)C(Cl)=C(C)C2O)nn1C (stereo not drawn) [Compound B33] | 5 | 4 | 5 | 5 | 5 | 4 | 5 | 5 | 5 | 5 | 5 | 5
CC#Cc1cc(N2C(=O)C(Cl)=C(C)C2O)nn1C (stereo not drawn) [Compound B35] | 3 | 1 | 5 | 4 | 3 | 0 | 4 | 1 | 1 | 4 | 4 | 0
CSc1cc(N2C(=O)C(Cl)=C(C)C2O)nn1C (stereo not drawn) [Compound B36] | 5 | 3 | 5 | 5 | 5 | 2 | 5 | 4 | 5 | 5 | 5 | 5
CC1=C(Cl)C(=O)N(c2cc(S(C)(=O)=O)n(C)n2)C1O (stereo not drawn) [Compound B38] | 5 | 4 | 5 | 5 | 5 | 4 | 5 | 5 | 5 | 5 | 5 | 5
CC1=C(Cl)C(=O)N(c2cc(C(C)C(F)(F)F)n(C)n2)C1O (stereo not drawn) [Compound B39] | 5 | 4 | 5 | 5 | 5 | 4 | 5 | 5 | 5 | 5 | 5 | 5
C/C=C\c1cc(N2C(=O)C(Cl)=C(C)C2O)nn1C (stereo not drawn) [Compound B43] | 5 | 2 | 5 | 4 | 4 | 1 | 5 | 4 | 4 | 5 | 5 | 2
C=C(C)c1cc(N2C(=O)C(Cl)=C(C)C2O)nn1C (stereo not drawn) [Compound B45] | 5 | 4 | 5 | 5 | 5 | 3 | 5 | 5 | 5 | 5 | 5 | 4
CC(C)=C(C)c1cc(N2C(=O)C(Cl)=C(C)C2O)nn1C (stereo not drawn) [Compound B48] | 4 | 4 | 5 | 4 | 3 | 1 | 5 | 4 | 5 | 5 | 4 | 1
CCO/C=C\c1cc(N2C(=O)C(Cl)=C(C)C2O)nn1C (stereo not drawn) [Compound B49] | 0 | 0 | 0 | 0 | 0 | 0 | 2 | 0 | 4 | 0 | 3 | 1
CCn1nc(N2C(=O)C(Cl)=C(C)C2O)cc1C(F)(F)F (stereo not drawn) [Compound C1] | 5 | 4 | 5 | 5 | 4 | 4 | 5 | 5 | 5 | 5 | 4 | 3
CCn1nc(N2C(=O)C(Cl)=C(C)C2O)cc1C(C)(C)C (stereo not drawn) [Compound C2] | 4 | 4 | 5 | 4 | 5 | 2 | 5 | 5 | 4 | 5 | 5 | 3
CCn1nc(N2C(=O)C(Cl)=C(C)C2O)c2c1C(C)(C)CC2 (stereo not drawn) [Compound C3] | 5 | 4 | 5 | 5 | 4 | 2 | 5 | 4 | 5 | 5 | 5 | 4
